Literature values in patent US11304951B1 (Janssen Pharmaceutica NV, priority 2020, dated 2022).

Q: For `CCCCCCCCCCCCCCCC(=O)OC1CCCn2c1nc(C)c(CCN1CCC(c3noc4cc(F)ccc34)CC1)c2=O` (racemic) [paliperidone palmitate, (±)-3-[2-[4-(6-fluoro-1,2-benzisoxazol-3-yl)-1-piperidinyl]ethyl]-6,7,8,9-tetrahydro-2-methyl-4-oxo-4H-pyrido[1,2-c]pyrimidin-9-yl hexadecanoate], which water solubility is on record?
A: extreme low water solubility
